# Several values for one entry are separate records, joined by “and”; a condition that tells them apart may be missing. Identical values can stand only once. Like-named read-outs stand apart in the source and are kept apart here.
# Tests used:
# Pseudomonas aeruginosa [1] = assay: Microtiter plate biofilm inhibition assay (crystal violet); type: cell-based; settings: 10 μg/ml; LB media with 0.2% glucose; 24 hours at room temperature; average of three wells
# Experimental: A microtiter plate assay was used to quantitatively measure the effect each tested compound had on the ability of bacteria to form a biofilm. In this example, a concentrated solution of each compound tested was loaded separately into three separate wells of a polystyrene microtiter plate. In addition, each assay included triplicate wells correlating to negative and positive controls. For the positive controls, biofilm inhibitors of known activity were used, whereas no inhibitors were added to wells correlating to negative controls. […] Thus, each well contained a final volume of approximately 200 μl (not including the volume of the concentrated inhibitor). […] The microtiter plates were then placed on a shaker for 24 hours at room temperature. After the 24 hour incubation period, the microtiter plate was removed from the shaker, rinsed, and stained. During the rinsing step, the test compound, media, and bacterial inoculum solution was drained from the plate, approximately 300 μl of 0.1M phosphate buffered saline (PBS) was added to each well, which was subsequently drained from the plate. The rinsing step removed any suspended cells from the assay. 0.1% crystal violet stain was added to each well for approximately 20 minutes. Next, the crystal violet solution was drained from the microtiter plate. The plate was rinsed with PBS as described above four (4) times to remove any excess stain from the plate. Following the PBS rinsing steps, the plate was eluted with 250 μl/well of ethanol, which improved the detection of the stain. The plate was immediately analyzed spectrophotometrically at 540 nm using a microtiter plate reader. The inhibitory effect each compound had on the bacteria's ability to form a biofilm on the surface of each well was determined as follows: The absorbance values observed for each set of three (3) wells correlating with a test compound or control were averaged. The average absorbance value for each test compound was compared to the average absorbance value of the negative control (the positive control was employed to verify proper assay function). In general, biofilm inhibition activity is inversely proportional to absorbance values, whereby, for example, low absorbance values correlate with significant inhibition activity and high absorbance values correlate with small or no inhibition activity. The approximate percent inhibition observed for each compound was calculated by comparing the average absorbance value for each test compound to the average absorbance value for the negative controls. Table 2 summarizes the average percent inhibition observed for the tested compounds listed against biofilms generated by Pseudomonas aeruginosa.
# Pseudomonas aeruginosa [2] = assay: Minimum inhibitory concentration (NCCLS broth microdilution); type: cell-based; settings: LB media with 0.2% glucose; 35° C. for 20-24 hours
# Experimental: The minimum inhibitory concentrations (MICs) for several of the specific biofilm inhibitors described herein were determined against several targets, including P. aeruginosa, E. coli, and Staphylococcus aureus. The MICs of the biofilm inhibitors were measured using the reference broth microdilution method recommended by the National Committee for Clinical Laboratory Standards (NCCLS). […] In each assay, positive and negative controls were employed, wherein the positive control included an antimicrobial agent with a known potency range that was used to ensure proper assay performance. The negative control, generally, included the solvent in which the test compounds were dissolved. In this example, the wells correlating to the negative controls included ethanol (without any biofilm inhibitors). […] Thus, each well contained a final volume of approximately 200 μl (not including the volume of the concentrated inhibitor). […] After bacterial inoculation and loading of test and control samples, the plate was incubated in an ambient air environment at 35° C. for 20-24 hours. The plate was subsequently rinsed, stained, and analyzed in accordance with the procedures described in Example 1. […] The minimum inhibitory concentrations were calculated as the lowest inhibitor concentration at which biofilm inhibition was observed.
# Escherichia coli = assay: as above; type: cell-based; settings: LB media with 0.2% glucose; 35° C. for 20-24 hours
# Experimental: (§1) The minimum inhibitory concentrations (MICs) for several of the specific biofilm inhibitors described herein were determined against several targets, including P. aeruginosa, E. coli, and Staphylococcus aureus. The MICs of the biofilm inhibitors were measured using the reference broth microdilution method recommended by the National Committee for Clinical Laboratory Standards (NCCLS).
# (§2) […]. The negative control, generally, included the solvent in which the test compounds were dissolved. In this example, the wells correlating to the negative controls included ethanol (without any biofilm inhibitors).
# (§3) In this example, 150 μl of sterile media was added to each well (LB media with 0.2% glucose), along with appropriate volumes of concentrated solutions of the inhibitors to be tested, followed by 50 μl of bacterial inoculum. Thus, each well contained a final volume of approximately 200 μl (not including the volume of the concentrated inhibitor). […]. The plate was subsequently rinsed, stained, and analyzed in accordance with the procedures described in Example 1.
# (§4) Tables 7, 8, and 9 summarize the data observed and, specifically, the MICs calculated for the several compounds referenced therein against P. aeruginosa, E. coli, and S. aureus, respectively. The minimum inhibitory concentrations were calculated as the lowest inhibitor concentration at which biofilm inhibition was observed.
# [3] = system: Pseudomonas aeruginosa strain PAO 1; assay: Rotating disk reactor biofilm test in combination with tobramycin; type: cell-based; settings: 48 hours biofilm; compound 110 approximately 100 μg/mL for 24 hours; tobramycin 100 μg/mL for two hours; polystyrene coupons
# Experimental: In this example, compound 110 was tested for biofilm inhibition with Pseudomonas aeruginosa in combination with Tobramycin. Specifically, biofilm formation of P. aeruginosa was evaluated using a standardized biofilm method with a rotating disk reactor (RDR), which is also known as “ASTM Standard Method #E-2196-02.” The rotating disk reactor consisted of a one-liter glass beaker fitted with a drain spout. The bottom of the vessel contained a magnetically driven rotor with six 1.27 cm diameter coupons constructed from polystyrene. The rotor consisted of a star-head magnetic stir bar upon which a disk was affixed to hold the coupons. The vessel (with the stir bar) was placed on a stir plate and rotated to provide fluid shear. A nutrient solution (AB Trace Medium with 0.3 mM glucose, see Table 5 below for specific formulation) was added through a stopper in the top of the reactor at a flow rate of 5 mL/min. The reactor volume was approximately 180 mL. At a volume of 180 mL, the residence time of the reactors was 36 minutes. The reactors were operated at room temperature (c.a. 26° C.). In this example, two RDRs were operated in parallel with one receiving compound 110 and the other serving as an untreated control. […] The plates were incubated for 24 hours at 37° C. before colony forming units (CFU) were determined.
# P. aeruginosa = settings: 10 μg/mL
# Experimental: In general, flow cell analysis begins by inoculating a microorganism into test and control flow cells along with the appropriate growth media (which may vary depending upon the organism involved). The microorganisms are maintained in the flow cells until they have produced biofilms having the desired coverage and thickness. Thereafter, the test flow cells are treated with appropriate concentrations of test inhibitors. […] Such negative controls may be used as reference points when measuring biofilm inhibition activity.
# After the appropriate flow cells are treated with the test inhibitors, Live/Dead stain is applied to each flow cell for approximately 45 minutes. Any currently-available Live/Dead stain may be employed in this procedure, such as LIVE BacLight™ Bacterial Gram stain (Molecular Probes, Inc., Eugene, Oreg., USA). The biofilm is subsequently rinsed with sterile media to remove excess stain, and the sample is transferred to a confocal microscope for imaging. The Live/Dead stain differentially stains the bacterial cells with green for Live and red for Dead. In a flow cell environment, it is generally understood that bacteria require the presence of biofilms to propagate. Accordingly, the activity of a biofilm inhibitor may be indirectly measured by comparing the number of live bacterial cells included in a flow cell that contained a test inhibitor to that of a negative control.
# The negative control flow cells included the inoculum in LB media with 0.2% glucose without any inhibitors. […] The test and control cells were subsequently stained and analyzed as described above.
# In this example, the number of live colony forming units (CFU) detected in the sample flow cells were compared to that of the negative control to indirectly measure biofilm inhibition.
# Staphylococcus aureus = assay: Minimum inhibitory concentration (NCCLS broth microdilution); type: cell-based; settings: LB media with 0.2% glucose; 35° C. for 20-24 hours
# Experimental: as §1, §2, §3, §4
# [4] = live CFU compared to negative control flow cell
compound,measurement,setting,value
C[C@@H]1C[C@@H](C(=O)O)C2CC[C@]3(C)C(=CCC4[C@@]5(C)C[C@@H](O)[C@H](O)C(C)(C)C5CC[C@]43C)[C@@H]2[C@]1(C)O (some centres unmarked) [Compound 192],Biofilm Inhibition- Pseudomonas aeruginosa,Pseudomonas aeruginosa [1],32%
same,MIC (μg/mL) - Pseudomonas aeruginosa,Pseudomonas aeruginosa [2],>10 µg/mL
C[C@H]1[C@H](C)CC[C@]2(C(=O)O)CCC3C(=CCC4[C@@]3(C)CCC3C(C)(C)[C@@H](OC(=O)/C=C/c5ccc(O)cc5)[C@H](O)C[C@@]34C)[C@H]12 (some centres unmarked) [Compound 189],Biofilm Inhibition- Pseudomonas aeruginosa,Pseudomonas aeruginosa [1],35%
same,MIC (μg/mL) - Pseudomonas aeruginosa,Pseudomonas aeruginosa [2],>10 µg/mL
CC1(C)CC[C@]2(C(=O)O)CC[C@]3(C)C(=CC[C@@H]4[C@@]5(C)CC[C@H](O)C(C)(C)[C@@H]5CC[C@]43C)[C@@H]2C1 [Compound 225],MIC (μg/mL) - Escherichia coli,Escherichia coli,>10 µg/mL
"NC[C@H]1O[C@H](O[C@H]2[C@H](O)[C@@H](O[C@H]3O[C@H](CO)[C@@H](O)[C@H](N)[C@H]3O)[C@H](N)C[C@@H]2N)[C@H](N)C[C@@H]1O [Tobramycin, reference compound]",CFU (in log 10),[3],6.1 CFU (in log 10)
"COc1cc(/C=C/C(=O)OC2C(O)CC3(C)C(CCC4(C)C3CC=C3C5C(C)C(C)CCC5(C(=O)O)CCC34C)C2(C)C)ccc1O (stereo not drawn) [Compound 116, 3α-O-trans-feruloyl-2α-hydroxy-12-ursen-28-oic acid]","Flow Cell with Compound 116 (CFU), Average","P. aeruginosa; LB media with 0.2% glucose, applied approximately 4 hours after inoculum, average",1.76E+06 CFU
same,"Flow Cell with Compound 116 (CFU), single flow cell","P. aeruginosa; LB media with 0.2% glucose, applied approximately 4 hours after inoculum, individual values",2.06E+06 CFU and 1.46E+06 CFU
same,Log Reduction,P. aeruginosa; [4],0.28
same,Percent Reduction,P. aeruginosa; [4],47%
same,Percent Reduction,"P. aeruginosa; live CFU compared to negative control flow cell, listed as compound 116",~47%
same,MIC (μg/mL) - Pseudomonas aeruginosa,Pseudomonas aeruginosa [2],>10 µg/mL
C[C@H]1[C@H](CO)C[C@@H](C(=O)O)C2CC[C@]3(C)C(=CCC4[C@@]5(C)CC[C@H](O)C(C)(C)C5CC[C@]43C)[C@@H]21 (some centres unmarked) [Compound 99],MIC (μg/mL) - Staphylococcus aureus,Staphylococcus aureus,>32 µg/mL
same,Biofilm Inhibition- Pseudomonas aeruginosa,Pseudomonas aeruginosa [1],30%
same,MIC (μg/mL) - Pseudomonas aeruginosa,Pseudomonas aeruginosa [2],>10 µg/mL
CC1(C)C[C@@H](C(=O)O)C2CCC3C(=CCC4C3(C)CCC3C4(C)C[C@@H](O)[C@H](O)C3(C)C)[C@@H]2C1 (some centres unmarked) [Compound 107],Biofilm Inhibition- Pseudomonas aeruginosa,Pseudomonas aeruginosa [1],46%
same,MIC (μg/mL) - Pseudomonas aeruginosa,Pseudomonas aeruginosa [2],>10 µg/mL
C[C@@H]1[C@H]2C3=CCC4[C@@]5(C)CC[C@H](O)C(C)(C)C5CC[C@@]4(C)[C@]3(C)CC[C@@]2(C(=O)O)CC[C@]1(C)O (some centres unmarked) [Compound 195],MIC (μg/mL) - Staphylococcus aureus,Staphylococcus aureus,>8 µg/mL
same,Biofilm Inhibition- Pseudomonas aeruginosa,Pseudomonas aeruginosa [1],25%
same,MIC (μg/mL) - Pseudomonas aeruginosa,Pseudomonas aeruginosa [2],>10 µg/mL
"C[C@@H]1[C@H]2C3=CC[C@@H]4[C@@]5(C)CC[C@H](OC(=O)/C=C\c6ccc(O)cc6)C(C)(C)[C@@H]5CC[C@@]4(C)[C@]3(C)CC[C@@]2(C(=O)O)CC[C@]1(C)O (relative stereo) [Compound 188, 3β-O-cis-p-coumaroyl-20β-hydroxy-12-ursen-28-oic acid]",MIC (μg/mL) - Pseudomonas aeruginosa,Pseudomonas aeruginosa [2],>10 µg/mL
C[C@@H]1CC[C@]2(C(=O)O)CC[C@]3(C)C(=CCC4[C@@]5(C)C[C@@H](O)[C@H](O)C(C)(C)C5CC[C@]43C)[C@@H]2[C@]1(C)O (some centres unmarked) [Compound 203],Biofilm Inhibition- Pseudomonas aeruginosa,Pseudomonas aeruginosa [1],43%
same,MIC (μg/mL) - Pseudomonas aeruginosa,Pseudomonas aeruginosa [2],>10 µg/mL
